From patent publication US10512676B2, “Formulations comprising recombinant acid alpha-glucosidase” (Amicus Therapeutics, Inc., priority 2016, dated 2019)
One block for each molecule: values may come before it.

Columns and labels:
[1] = Plasma miglustat pharmacokinetics, phase 1/2 study in adults with Pompe disease; format: in vivo, human; details: for CL/F: arithmetic mean (CV %)
Description: Mean total GAA protein and miglustat PK results from the first 8 Cohort 1 patients through Visit 9 and the first 2 Cohort 3 patients were assessed.

[2] = target: CIMPR (Homo sapiens, UniProt P11717); experiment: CIMPR affinity chromatography (CIMPR column, free M6P gradient); format: binding; details: fraction of total enzyme by GAA activity; for rhGAA that did not bind to the CIMPR: eluted prior to addition of M6P
Sequence of CIMPR (P11717 41-2491, species assumed): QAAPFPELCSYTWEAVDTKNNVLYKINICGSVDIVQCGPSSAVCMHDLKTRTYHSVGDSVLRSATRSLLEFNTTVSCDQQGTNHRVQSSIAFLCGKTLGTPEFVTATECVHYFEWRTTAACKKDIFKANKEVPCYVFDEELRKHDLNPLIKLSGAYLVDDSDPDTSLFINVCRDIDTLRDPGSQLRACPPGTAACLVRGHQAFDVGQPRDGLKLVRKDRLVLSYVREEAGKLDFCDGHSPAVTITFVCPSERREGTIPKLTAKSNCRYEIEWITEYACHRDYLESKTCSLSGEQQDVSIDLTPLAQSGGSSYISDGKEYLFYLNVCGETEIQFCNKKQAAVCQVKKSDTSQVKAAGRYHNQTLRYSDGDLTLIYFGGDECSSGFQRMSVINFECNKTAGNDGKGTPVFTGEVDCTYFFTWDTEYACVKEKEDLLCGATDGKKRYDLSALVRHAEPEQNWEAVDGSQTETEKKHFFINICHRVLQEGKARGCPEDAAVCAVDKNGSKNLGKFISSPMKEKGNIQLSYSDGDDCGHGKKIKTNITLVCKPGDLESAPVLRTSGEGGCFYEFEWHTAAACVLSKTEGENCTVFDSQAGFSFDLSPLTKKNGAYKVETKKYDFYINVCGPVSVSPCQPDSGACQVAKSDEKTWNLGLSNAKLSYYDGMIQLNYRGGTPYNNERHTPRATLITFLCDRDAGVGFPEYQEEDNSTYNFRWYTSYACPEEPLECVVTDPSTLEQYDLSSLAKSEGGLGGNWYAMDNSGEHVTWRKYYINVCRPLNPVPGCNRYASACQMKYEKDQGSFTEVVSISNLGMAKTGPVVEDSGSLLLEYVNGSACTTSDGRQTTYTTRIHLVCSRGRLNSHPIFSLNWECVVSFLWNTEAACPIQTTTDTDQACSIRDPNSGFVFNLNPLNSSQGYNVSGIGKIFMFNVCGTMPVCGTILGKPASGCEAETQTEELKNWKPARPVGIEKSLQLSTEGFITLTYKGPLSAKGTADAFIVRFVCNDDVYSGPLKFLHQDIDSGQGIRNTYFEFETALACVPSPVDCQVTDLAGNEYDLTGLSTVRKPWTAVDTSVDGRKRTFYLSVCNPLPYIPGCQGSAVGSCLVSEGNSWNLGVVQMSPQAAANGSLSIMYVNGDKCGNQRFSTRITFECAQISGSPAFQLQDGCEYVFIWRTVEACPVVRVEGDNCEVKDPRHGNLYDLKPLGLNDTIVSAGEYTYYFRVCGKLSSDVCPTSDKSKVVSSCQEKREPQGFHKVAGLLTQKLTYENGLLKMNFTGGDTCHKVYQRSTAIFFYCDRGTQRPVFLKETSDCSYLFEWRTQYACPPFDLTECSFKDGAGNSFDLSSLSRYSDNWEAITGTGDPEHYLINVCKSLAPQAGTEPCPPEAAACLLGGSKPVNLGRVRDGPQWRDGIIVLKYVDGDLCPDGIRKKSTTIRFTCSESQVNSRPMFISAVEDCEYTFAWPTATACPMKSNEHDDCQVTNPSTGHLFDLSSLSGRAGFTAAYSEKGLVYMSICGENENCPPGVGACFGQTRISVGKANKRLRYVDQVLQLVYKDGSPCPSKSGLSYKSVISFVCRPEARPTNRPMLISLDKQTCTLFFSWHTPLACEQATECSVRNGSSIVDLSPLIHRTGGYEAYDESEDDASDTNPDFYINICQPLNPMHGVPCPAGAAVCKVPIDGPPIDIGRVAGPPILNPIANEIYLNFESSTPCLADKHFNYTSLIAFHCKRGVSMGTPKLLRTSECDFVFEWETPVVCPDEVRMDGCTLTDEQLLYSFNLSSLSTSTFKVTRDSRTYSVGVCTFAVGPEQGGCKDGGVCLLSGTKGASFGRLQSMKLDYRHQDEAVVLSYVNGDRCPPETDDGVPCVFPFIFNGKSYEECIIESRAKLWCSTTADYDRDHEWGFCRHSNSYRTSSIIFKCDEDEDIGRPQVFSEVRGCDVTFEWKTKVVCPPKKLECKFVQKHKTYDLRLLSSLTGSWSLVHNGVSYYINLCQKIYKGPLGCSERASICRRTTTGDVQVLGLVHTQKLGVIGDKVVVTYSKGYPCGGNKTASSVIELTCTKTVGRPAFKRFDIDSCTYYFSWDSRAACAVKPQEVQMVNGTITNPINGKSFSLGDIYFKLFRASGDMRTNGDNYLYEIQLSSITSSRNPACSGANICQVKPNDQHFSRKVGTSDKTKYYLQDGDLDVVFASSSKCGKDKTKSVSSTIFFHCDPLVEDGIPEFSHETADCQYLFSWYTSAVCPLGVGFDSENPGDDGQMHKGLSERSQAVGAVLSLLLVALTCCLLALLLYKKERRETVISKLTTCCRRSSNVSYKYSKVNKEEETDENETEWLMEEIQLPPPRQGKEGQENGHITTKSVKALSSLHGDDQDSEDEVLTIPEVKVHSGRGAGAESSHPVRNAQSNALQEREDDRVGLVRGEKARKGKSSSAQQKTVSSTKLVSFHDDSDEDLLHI
Description: To evaluate the ability of the rhGAA in Myozyme® and Lumizyme®, the only currently approved treatments for Pompe disease, these rhGAA preparations were injected onto a CIMPR column (which binds rhGAA having M6P groups) and subsequently eluted with a free […] gradient. Fractions were collected in 96-well plate and GAA activity assayed by 4MU-α-glucose substrate. The relative amounts of bound and unbound rhGAA were determined based on GAA activity and reported as the fraction of total enzyme.

[3] = tested on: normal and Pompe fibroblast cell lines; experiment: Cellular uptake of rhGAA in normal and Pompe fibroblast cell lines; format: cell-based
Description: The relative cellular uptake of ATB200 and Lumizyme® rhGAA were compared using normal and Pompe fibroblast cell lines. […] After 16-hr incubation, external rhGAA was inactivated with TRIS base and cells were washed 3-times with PBS prior to harvest. Internalized GAA measured by 4MU-α-Glucoside hydrolysis and was graphed relative to total cellular protein and the results appear in FIGS. 11A-B.

[4] = tested on: Gaa KO mice; experiment: Muscle function in Gaa-knockout mice, 12 biweekly administrations (grip strength, wire hang); format: in vivo, mouse; details: 12 biweekly administrations, ERT 20 mg/kg (miglustat 10 mg/kg)
Text: In FIG. 18A, * indicates statistically significant compared to Lumizyme® alone (p<0.05, 2-sided t-test). In FIGS. 19A-19G, * indicates statistically significant compared to Lumizyme® alone (p<0.05, multiple comparison using Dunnett's method under one-way ANOVA analysis).

[5] = Apparent plasma half-life in vivo

plasma miglustat kinetics ([1]; 130 mg and 260 mg oral): dose-proportional kinetics
CL/F ([1]; High MD): 10.3 (26.4) L/h
CL/F ([1]; High SD): 10.6 (33) L/h
CL/F ([1]; Low MD): 10.2 (23.9) L/h
CL/F ([1]; Low SD): 10.6 (23) L/h
Molecule: CCCCN1C[C@H](O)[C@@H](O)[C@H](O)[C@H]1CO [Miglustat, miglustat]

rhGAA that contained M6P / bound CIMPR (eluted with M6P) [2]: 27%
rhGAA that did not bind to the CIMPR [2]: 73%
Molecule: Myozyme®: conventional rhGAA product containing alglucosidase alfa, Genzyme

rhGAA that contained M6P / bound CIMPR (eluted with M6P) [2]: 22%
rhGAA that did not bind to the CIMPR [2]: 78%
Molecule: Lumizyme®: conventional rhGAA product containing alglucosidase alfa, Genzyme
concentration that saturates cellular receptors ([3]; 16-hr incubation): about 250 nM
uptake efficiency constant (Kuptake) ([3]; extrapolated, FIG. 11C): 56 nM
functional muscle strength (grip strength and wire hang tests) [4]: observed to decline under identical conditions throughout most of the study

Molecule: [199-arginine,223-histidine]prepro-α-glucosidase (human) [alglucosidase alfa, reference compound]
apparent plasma half-life (t1/2) [5]: ~1 h
